The values below come from patent publication US9145415B2, “Nitrogen-containing heterocyclic compound or salt thereof” (FUJIFILM Corporation, priority 2012, dated 2015).

In one assay the test system is Molm-13 cells. Briefly: Leukemia cell proliferation inhibition test (ATPlite), Molm-13. In kind it is cell-based. Particulars: read-out: MOLM13 cell proliferation inhibition effect. The method, boiled down:
(§1)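 72 h proliferation, 37° C/5% CO2; 10,000 cells/well, RPMI/10% FBS; ATPlite luminescence (RLU); 0.1% DMSO taken as 0% inhibition; GI50 via sigmoid fit, n=2.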

In the next assay the test system is MV4-11 cells. As to the kind of experiment: Leukemia cell proliferation inhibition test (ATPlite), MV4-11. The format is cell-based. Particulars: read-out: MV4-11 cell proliferation inhibition effect. The method, boiled down: as §1
The target in assay [1] is T1, human FLT3 protein (FLT3 (WT)) (Homo sapiens, UniProt P36888).
T1 construct: human FLT3 protein (intracellular region, 564 to 993 aa); GST; purchased Carna Biosciences; host or cells: baculovirus expression system
T1 sequence (P36888 564-993): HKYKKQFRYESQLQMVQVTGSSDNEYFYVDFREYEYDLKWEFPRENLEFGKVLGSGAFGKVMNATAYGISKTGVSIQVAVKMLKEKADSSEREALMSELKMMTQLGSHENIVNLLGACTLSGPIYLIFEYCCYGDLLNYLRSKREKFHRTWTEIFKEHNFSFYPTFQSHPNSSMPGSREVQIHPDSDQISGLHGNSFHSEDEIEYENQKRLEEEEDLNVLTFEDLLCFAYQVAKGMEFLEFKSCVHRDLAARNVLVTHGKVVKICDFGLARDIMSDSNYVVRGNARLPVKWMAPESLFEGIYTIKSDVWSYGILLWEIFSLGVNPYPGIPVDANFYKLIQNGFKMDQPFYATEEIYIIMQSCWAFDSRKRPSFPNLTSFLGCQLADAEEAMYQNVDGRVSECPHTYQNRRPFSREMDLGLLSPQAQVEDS
Briefly: FLT3 inhibition test (FLT3 enzyme inhibition, time-resolved fluorescence of substrate peptide phosphorylation). In kind it is biochemical. Particulars: read-out: FLT3 (WT) enzyme inhibition activity. The method, boiled down: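 Wild-type human FLT3 (1.2 μg) pre-incubated with compound 15 min at 25° C in 100 mM HEPES pH 7.5, 10 mM MgCl2, 25 mM NaCl, 1 mM DTT. Reaction started with substrate peptide and ATP (final 50 μM), run 30 min at 25° C; phosphorylation read by time-resolved fluorescence.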

The mark [2] stands for this setting: Homo sapiens, MOLM-13, MOLM13 cell.
The mark [3] stands for this setting: Homo sapiens, MV4-11, MV4-11 cell.
The mark [4] stands for this setting: Homo sapiens, MOLM-13, 72 h, Molm-13, 72 hours culture, ATPlite, GI50 per method.
[5] abbreviates: Homo sapiens, MV4-11, 72 h, MV4-11, 72 hours culture, ATPlite, GI50 per method.
Where [6] appears, read: GST-fused human FLT3 (564 to 993 aa), ATP 50 μM.

Where two headings read alike, the source gives them in different places.

Consider `CCCNc1nc(Nc2cnc3c(c2)c(C)nn3C)ncc1C#CCCCNC(=O)[C@@H]1CCCN1C(=O)/C=C/CN(C)C` [Compound 22-45], for which the IC50 (in the assay with Molm-13 cells (setting [2]); in the assay with MV4-11 cells (setting [3]); in assay [1] (FLT3 (WT))) was below 0.01 µM in each case.
Regarding `CCCNc1nc(Nc2ccc(C#N)cc2)ncc1C#CCCCNC(=O)[C@H]1CCCCN1C(=O)/C=C/CN(C)C` [Compound 7-38], the IC50 was 0.01 to 0.1 µM in the assay on Molm-13 cells (setting [4]), 0.01 to 0.1 µM in the assay on MV4-11 cells (setting [5]) and below 0.01 µM in assay [1] (setting [6]).
As for `C[C@@H](C(=O)NCCCC#Cc1cnc(Nc2ccc(C#N)cc2)nc1N1CCCC(F)(F)C1)N(C)C(=O)/C=C/CN(C)C` [Compound 10-44], the IC50 (with Molm-13 cells (setting [4]); in the assay on MV4-11 cells (setting [5]); in assay [1] (setting [6])) was below 0.01 µM in each case.
Consider `COCCCNc1nc(Nc2ccnc(OC)c2)ncc1C#CCCCNC(=O)[C@@H]1CCCN1C(=O)/C=C/CN(C)C` [Compound 9-32, (S,E)-1-(4-(Dimethylamino)-2-butenoyl)-N-(5-(4-((3-methoxypropyl)amino)-2-((methoxypyridin-4-yl)amino)pyrimidin-5-yl)-4-pentyn-1-yl)pyrrolidine-2-carboxamide], for which the IC50 (with Molm-13 cells (setting [4]); with MV4-11 cells (setting [5]); in assay [1] (setting [6])) was below 0.01 µM each time.
On to `CCCNc1nc(Nc2ccc(C#N)cc2)ncc1C#CC(C)(C)CCNC(=O)[C@H](C)N(C)C(=O)/C=C/CN(C)C` [Compound 9-26], for which the IC50 (with Molm-13 cells (setting [4]); in the assay on MV4-11 cells (setting [5]); in assay [1] (setting [6])) was below 0.01 µM in each case.
Take `CCCNc1nc(Nc2cnc3c(cnn3C)c2)ncc1C#CCCCNC(=O)[C@H](C)N(C)C(=O)/C=C/CN(C)C` [Compound 22-27]: the IC50 (with Molm-13 cells (setting [2]); with MV4-11 cells (setting [3]); in assay [1] (FLT3 (WT))) was below 0.01 µM each time.
As to `CCCNc1nc(Nc2ccc(C(N)=O)cc2)ncc1C(=O)N[C@H]1CCC[C@H](Nc2ccccc2NC(=O)/C=C/CN(C)C)C1` [Compound 3-27], the IC50 in the assay on Molm-13 cells (Molm-13, 72 hours culture, ATPlite, GI50 per method) was 0.01 to 0.1 µM; in the assay on MV4-11 cells (MV4-11, 72 hours culture, ATPlite, GI50 per method), 0.01 to 0.1 µM; in assay [1] (setting [6]), below 0.01 µM.
For the compound `CNc1nc(Nc2cccc(C#N)c2)ncc1C#CCCCNC(=O)[C@@H]1C[C@H](F)CN1C(=O)/C=C/CN(C)C` [Compound 7-75], the IC50 (in the assay with Molm-13 cells (setting [4]); with MV4-11 cells (setting [5]); in assay [1] (setting [6])) was below 0.01 µM in each case.
As for `CCCNc1nc(Nc2cnc3c(c2)c(OC)nn3C)ncc1C#CCCCNC(=O)[C@H](C)N(C)C(=O)/C=C/CN(C)C` [Compound 22-29], the IC50 (in the assay with Molm-13 cells (setting [2]); with MV4-11 cells (setting [3]); in assay [1] (FLT3 (WT))) was below 0.01 µM in each case.
Regarding `C=CC(=O)N1CCC(NC(=O)c2cnc(NCCc3ccncc3)nc2NCCC)CC1` [Compound 6-18], the results for the IC50 (in the assay on Molm-13 cells (setting [4]); with MV4-11 cells (setting [5]); in assay [1] (setting [6])) were 0.01 to 0.1 µM, 0.01 to 0.1 µM and below 0.01 µM, respectively.
On to `C[C@@H](C(=O)NCCCC#Cc1cnc(Nc2ccc3[nH]ncc3c2)nc1NC1CC1)N(C)C(=O)/C=C/CN(C)C` [Compound 10-72], for which the IC50 (in the assay on Molm-13 cells (setting [4]); with MV4-11 cells (setting [5]); in assay [1] (setting [6])) was below 0.01 µM throughout.
Take `CCCNc1nc(Nc2ccc(C(N)=O)cc2)ncc1C#CCCCNC(=O)[C@H](C)N(C)C(=O)/C=C/CN(C)C` [Compound 7-4, (S,E)-4-((5-(5-(2-(4-(Dimethylamino)-N-methyl-2-butenamido)propaneamido)-1-pentyn-1-yl)-4-(propylamino)pyrimidin-2-yl)amino)benzamide]: the IC50 (in the assay on Molm-13 cells (setting [4]); in the assay on MV4-11 cells (setting [5]); in assay [1] (setting [6])) was below 0.01 µM throughout.
Take `COCCCNc1nc(Nc2ccc3cn[nH]c3c2)ncc1C#CCCCNC(=O)[C@H](C)N(C)C(=O)/C=C/CN(C)C` [Compound 10-65]: the IC50 (in the assay with Molm-13 cells (setting [4]); with MV4-11 cells (setting [5]); in assay [1] (setting [6])) was below 0.01 µM in each case.
For `CCCNc1nc(Nc2cc(C)no2)ncc1C#CCCCNC(=O)[C@H](C)N(C)C(=O)/C=C/CN(C)C` [Compound 7-78], the IC50 with Molm-13 cells (setting [4]) was 0.01 to 0.1 µM; in the assay with MV4-11 cells (setting [5]), below 0.01 µM; in assay [1] (setting [6]), below 0.01 µM.
For the compound `CCNc1nc(Nc2ccc3[nH]ncc3c2)ncc1C#CCCCNC(=O)[C@@H]1CCCN1C(=O)/C=C/CN(C)C` [Compound 10-67, (S,E)-N-(5-(2-((1H-Indazol-5-yl)amino)-4-(ethylamino)pyrimidin-5-yl)-4-pentyn-1-yl)-1-(4-(dimethylamino)-2-butenoyl)pyrrolidine-2-carboxamide], the IC50 (in the assay on Molm-13 cells (setting [4]); in the assay with MV4-11 cells (setting [5]); in assay [1] (setting [6])) was below 0.01 µM in each case.
On to `C[C@@H](C(=O)NCCCC#Cc1cnc(Nc2ccc(C#N)cc2)nc1NC1CCCC1)N(C)C(=O)/C=C/CN(C)C` [Compound 10-48], for which the IC50 (in the assay with Molm-13 cells (setting [4]); in the assay on MV4-11 cells (setting [5]); in assay [1] (setting [6])) was below 0.01 µM in each case.
For the compound `C[C@@H](C(=O)N[C@H]1C[C@@H](C#Cc2cnc(Nc3ccc(C#N)cc3)nc2NC2CC2)C1)N(C)C(=O)/C=C/CN(C)C` (relative stereo) [Compound 15-8, (E)-N—((S)-1-(((1S*,3R*)-3-((2-((4-Cyanophenyl)amino)-4-(cyclopropylamino)pyrimidin-5-yl)ethynyl)cyclobutyl)amino)-1-oxopropan-2-yl)-4-(dimethylamino)-N-methyl-2-butenamide], the IC50 (with Molm-13 cells (setting [4]); with MV4-11 cells (setting [5]); in assay [1] (setting [6])) was below 0.01 µM throughout.
Turning to `C[C@@H](C(=O)NCCCC#Cc1cnc(Nc2cccc(F)c2)nc1NCCC#N)N(C)C(=O)/C=C/CN(C)C` [Compound 10-8], the values for the IC50 (in the assay with Molm-13 cells (setting [4]); in the assay with MV4-11 cells (setting [5]); in assay [1] (setting [6])) were 0.01 to 0.1 µM, below 0.01 µM and below 0.01 µM, respectively.
For the compound `C[C@@H](C(=O)N[C@H]1C[C@@H](C#Cc2cnc(Nc3cccc(F)c3)nc2NC2CC2)C1)N(C)C(=O)/C=C/CN(C)C` [Compound 15-7], the IC50 (in the assay on Molm-13 cells (setting [4]); in the assay on MV4-11 cells (setting [5]); in assay [1] (setting [6])) was below 0.01 µM in each case.
Regarding `CCCN(C)c1nc(Nc2ccc(C(N)=O)cc2)ncc1C#CCCCNC(=O)[C@H](C)N(C)C(=O)/C=C/CN(C)C` [Compound 9-6], the IC50 (with Molm-13 cells (setting [4]); in the assay on MV4-11 cells (setting [5]); in assay [1] (setting [6])) was below 0.01 µM each time.
For `C=CC(=O)NCC(=O)Nc1cccc(CNC(=O)c2cnc(NCCc3ccncc3)nc2NCCC)c1` [Compound 2-27], the figures for the IC50 (with Molm-13 cells (setting [4]); with MV4-11 cells (setting [5]); in assay [1] (setting [6])) were 0.1 to 1 µM, 0.1 to 1 µM and 0.01 to 0.1 µM, respectively.
Regarding `CCCNc1nc(Nc2ccc(C#N)cc2)ncc1C#CCCCNC(=O)[C@H](CC)N(C)C(=O)/C=C/CN(C)C` [Compound 7-34], the IC50 (in the assay with Molm-13 cells (setting [4]); with MV4-11 cells (setting [5]); in assay [1] (setting [6])) was below 0.01 µM each time.
For `COCCCNc1nc(Nc2ccc(C#N)cc2)ncc1C#CCCCNC(=O)[C@H](C)N(C)C(=O)/C=C/CN(C)C` [Compound 10-49], the IC50 (in the assay with Molm-13 cells (setting [4]); in the assay with MV4-11 cells (setting [5]); in assay [1] (setting [6])) was below 0.01 µM each time.
For the compound `COCCCNc1nc(Nc2ccnc(OC)c2)ncc1C#CCCCNC(=O)[C@@H]1C[C@H](O)CN1C(=O)/C=C/CN(C)C` [Compound 9-33], the IC50 (with Molm-13 cells (setting [4]); in the assay on MV4-11 cells (setting [5]); in assay [1] (setting [6])) was below 0.01 µM each time.
Consider `CNc1nc(Nc2ccc(F)nc2)ncc1C#C[C@@H]1CCC[C@H](NC(=O)[C@H](C)N(C)C(=O)/C=C/CN(C)C)C1` [Compound 15-3], for which the IC50 (with Molm-13 cells (setting [4]); in the assay on MV4-11 cells (setting [5]); in assay [1] (setting [6])) was below 0.01 µM in each case.
For the compound `COCCCNc1nc(Nc2ccc(F)cc2)ncc1C#CCCCNC(=O)CN(C)C(=O)/C=C/CN(C)C` [Compound 10-27], the IC50 (in the assay with Molm-13 cells (setting [4]); in the assay with MV4-11 cells (setting [5]); in assay [1] (setting [6])) was below 0.01 µM each time.
Regarding `CCCNc1nc(Nc2cccc(F)c2)ncc1CNc1cccc(NC(=O)[C@H](C)N(C)C(=O)/C=C/CN(C)C)c1` [Compound 6-21], the IC50 lay within 0.1 to 1 µM with Molm-13 cells (setting [4]), 0.1 to 1 µM in the assay on MV4-11 cells (setting [5]) and 0.01 to 0.1 µM in assay [1] (setting [6]).
As to `CCCNc1nc(Nc2ccc(C(N)=O)cc2)ncc1C(=O)NC1CCCC(NC(=O)CNC(=O)/C=C/CN(C)C)C1` (stereo not drawn) [Compound 3-3], the IC50 was 0.01 to 0.1 µM in the assay with Molm-13 cells (setting [4]), 0.01 to 0.1 µM with MV4-11 cells (setting [5]) and below 0.01 µM in assay [1] (setting [6]).
Consider `CCCNc1nc(Nc2cccc(F)c2)ncc1C#CCCCNC(=O)[C@@H]1CCN1C(=O)/C=C/CN(C)C` [Compound 7-51], for which the IC50 (with Molm-13 cells (setting [4]); in the assay on MV4-11 cells (setting [5]); in assay [1] (setting [6])) was below 0.01 µM throughout.
